From patent US9351971B2, “Substituted 2,2′-biphenazines for treating diseases” (Eutropics Pharmaceuticals, Inc., priority 2010, dated 2016)
“And” between values parts separate entries of the source, which are not always exact repeats. Equal values may be shown once. “Also recorded” adds a separate entry of the source. Read-outs that look alike come from different tables or passages of the source.

Columns and labels:
Mcl-1 = target: T1, Mcl-1 (Homo sapiens, UniProt Q07820); assay: Fluorescence polarization assay, Bim BH3 peptide binding to GST-Mcl-1
T1 construct: made in house; host or cells: E. coli
T1 sequence (Q07820 whole entry): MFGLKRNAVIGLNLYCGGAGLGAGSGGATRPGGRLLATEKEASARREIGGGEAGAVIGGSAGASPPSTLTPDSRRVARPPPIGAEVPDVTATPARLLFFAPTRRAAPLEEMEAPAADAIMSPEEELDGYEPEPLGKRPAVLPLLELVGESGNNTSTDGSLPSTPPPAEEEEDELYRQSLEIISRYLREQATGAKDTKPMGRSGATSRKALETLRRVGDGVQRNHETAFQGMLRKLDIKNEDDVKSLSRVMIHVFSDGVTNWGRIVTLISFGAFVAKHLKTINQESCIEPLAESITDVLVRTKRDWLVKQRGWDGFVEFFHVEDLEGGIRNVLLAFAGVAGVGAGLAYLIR
Source text: (§1) A nineteen amino acid peptide, corresponding to the BH3 domain of Bim, with the sequence FITC-GGGIAQELRRIGDEFNAY (SEQ ID NO: 1) was labeled with the tluorophore FITC according to the manufacturer's instructions (Molecular Probes, Eugene, Oreg.). This sequence was identified as being able to bind to purified Bcl-xL protein (Sattler et al. (1997) Science 275(5302): 983-86) and to have biological activity in cells (Holinger et al. J. Biol. Chem. 274; 13298-1330).
(§2) In addition, recombinant GST -Mcl-1 and GST-Bcl-xL fusion proteins were generated in E.coli and purified using glutathione-sepharose beads using conventional techniques known to those skilled in the fields of biochemistry and molecular biology, (methods for preparation are described in Strategies for Protein Purification and Characterization, Marshak, D, Kadonga, J, Burgess R, Knuth, M, Brennan, W, Sue-Hwa, L, CSH press, Cold Spring Harbor, N.Y.). Binding of the recombinant proteins to the fluorescent Bim BH3 domain was confirmed by titration of increasing concentrations of the recombinant proteins against a constant amount of labeled Bim peptide (16.65 nM). Quantitation of binding was accomplished by FP assay with mP measurements made on the Analyst-GT reader (Molecular Devices, Sunnyvale, Calif.).
Further, the ability of compound A to disrupt the interaction between the fluorescent Bim BH3 peptide and the two fusion proteins was assessed using a fluorescence polarization assay. The Bim peptide (in solution at 4 nano-Molar) and either GST-Mcl-1 (in solution at 12.5 nM) or GST-Bcl-xL (in solution at 11.8 nM) were first combined together in phosphate buttered saline buffer, and then the compound solution in DMSO was added to final concentrations ranging from 10 μM to 0.1 nM). Normally the unbound Bim polypeptide results in polarization of 5 mP units. Upon binding of the GST-Bcl-xL and GST-Mcl-1 fusion protein, polarization increased to 100 mP units.
(§3) Experiments are performed using the fluorescence polarization assay as described in Example 2. Either Bcl-xL or Mcl-1 fusion proteins were titrated and maximum mp shift indicate binding concentrations for drug titration studies, as described in Example 2. Compound II-19, was titrated from 10 μM to 0.1 nM in 2 fold serial dilution into the peptide/protein solution. The IC50 for blocking each BH3 peptide from Mcl-1 are assessed using FP, as described in Example 2.
as §3, with “Either GST-Bcl-xL” for “Either Bcl-xL”, “or GST-Mcl-1” for “or Mcl-1”, “Compound II-20,” for “Compound II-19,”, “in 2-fold” for “in 2 fold”

Bcl-xL = target: T2, Bcl-xL (Homo sapiens, UniProt Q07817); assay: Fluorescence polarization assay, Bim BH3 peptide binding to GST-Bcl-xL; settings: Bim-BH3-FITC peptide, read-out: IC50, inhibition of Bim-BH3 peptide binding to Bcl-xL
T2 construct: made in house; host or cells: E. coli
T2 sequence (Q07817 whole entry): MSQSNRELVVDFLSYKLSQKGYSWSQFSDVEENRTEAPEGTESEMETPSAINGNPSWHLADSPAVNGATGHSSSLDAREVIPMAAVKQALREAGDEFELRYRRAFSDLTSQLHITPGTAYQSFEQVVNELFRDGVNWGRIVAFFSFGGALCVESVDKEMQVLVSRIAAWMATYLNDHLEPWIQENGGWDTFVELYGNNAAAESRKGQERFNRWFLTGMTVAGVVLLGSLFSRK
Source text: as §1, §2
Further, the ability of compound A to disrupt the interaction between the fluorescent Bim BH3 peptide and the two fusion proteins was assessed using a fluorescence polarization assay. […]
(§4) Experiments are performed using the fluorescence polarization assay as described in Example 2. […] The IC50 for blocking each BH3 peptide from Mcl-1 are assessed using FP, as described in Example 2.
as §4

Microsome stability = assay type: in vitro ADME
CCRF-CEM cells = assay: CCRF-CEM leukemia xenograft study in SCID mice; assay type: in vivo, mouse; settings: 60 mg/kg I.P. 5x/week
Experimental: The T Lymphoblastic Leukemic Cell Line CCRF-CEM was purchased from American Type Culture Consortium (ATCC). These cells were maintained in RPMI-1640 medium supplemented with 10% of fetal bovine serum, 2 mM glutamine, and 1 mM sodium pyruvate. The cells were cultured at 37° C. in 95% air/5% CO2 and 100% humidity. Medium in the culture was changed every 48 h and cells were passaged weekly.
For cell implantation to mice, cells were harvested by centrlfugation. Cell pellets were resuspended in PBS and counted using a hemacytometer and Trypan Blue dye to measure the number of viable cells in the suspension. The harvested cells were washed once with PBS and resuspended in serum-free medium at a density of 1×10^7 cells/100 μl.
For this xenograft study, animals were divided into 4 groups of 10 mice each. Groups were treated with test compounds by IP Injection at 60 mg/kg with or vehicle control.
Mice were inoculated with the CCRF-CEM cells (10,000,000 cells) were by tail vein injection. The cell suspensions had the tendency to form clumps. Therefore, during cell inoculation, the cell suspensions had to be mixed well before drawing into the syringe. Gauge 28 needles were used for the injection.
Test articles were dissolved in a mixture of DMSO/Cremophor/water (10:18:72) and administered to the animals in 100 μl aliquots 5× per week beginning 7 days after cells were transplanted into mice. Control dosage was performed under the same schedule.
Throughout the entire study, clinical observations were conducted daily for signs of leukemia development, including lethargy, ruffled fur, lack of responsiveness to stimuli, weight loss, and becoming moribund. On Day 21 after cell inoculation, blood samples were drawn from all groups. The white blood cells of all the blood samples were measured with a Nucleo Counter (ChemMetec, Denmark). […]
After 14 days of treatment, blood samples were taken from all the mice via orbital bleeding while mice were anesthetized using isoflurane inhalation. […] The number of white blood cells was then counted by standard methods.

[1] = Pharmacokinetics of compound A in the mouse; assay type: in vivo; settings: for plasma clearance: i.p.; for half-life: plasma, ip
Experimental: Pharmacokinetic studies were conducted on compound A to assess plasma clearance and distribution in the mouse. Compound A was administered i.p. (as in the xenograft study) at 10 mg/kg.
Pharmacokinetic studies were conducted on compound A to assess plasma clearance and distribution in the mouse. Compounds were administered i.p. (as in the xenograft study) at 19 mg/kg.

[2] = Dose escalation study in SCID mice; assay type: in vivo; settings: 60 mg/kg
Experimental: Compound A was tested in SCID mice at SRI International, Menlo Park, Calif. A dose escalation study determined that that the high dose of 60 mg/kg was well-tolerated and could be safely used for the xenograft study for all 3 test articles.

[3] = tested on: NCI-H929 multiple myeloma cell line; assay: Cell viability MTS assay, NCI-H929; assay type: cell-based; settings: Homo sapiens, 48 hours
Experimental: (§5) The lymphoid derived cell lines DHL-6 and DHL-10 were obtained from Anthony Letai of the Dana Father Cancer Research Institute, Boston, Mass. The […] derived cell line NCP-H929 was obtained irons, the NIH/NCI cell repository. AML-3 cells were obtained from Dr. Michael Andreef (MD Anderson Cancer Center, Houston, Tex.). Cells were grown in RPMI 1640 medium (GIBCO-BRL) supplemented with Pen-strep-glutamine (Gibco 10378) and 5% fetal bovine serum.
(§6) Cells were expanded in tissue culture in appropriate media and then subcultured into 96-well plates at a seeding density of 20,000-40,000 cells per well, and cells were treated with one or more compounds that were titrated info appropriate medium with FCS. Cell lines were treated with compound A at concentrations ranging from 25 μM to 25 nM. The BH3-mimetic obatoclax (Nguyen M et al. (2007), Proc. Natl. Acad. Sci. USA 104:19512-19517) was also tested against the SUDHL-6, SUDHL-10, and NCI-H929 cell lines. Cells were treated for 48 hours and scored for viability using the MTS assay (Promega). Growth inhibition was indicated as a percentage of control cell growth. Growth was determined by measuring the A570 (control cells)—A570 (treated cells)/A570 (control cells). EC50 values were calculated using Graphpad Prizm software.

SUDHL-10 cell line = assay: Cell viability MTS assay, SUDHL-10 (Bax/Bak deficient); assay type: cell-based, human; settings: Homo sapiens, SU-DHL10, 48 hours, MTS assay, Bax/Bak deficient cell line
Experimental: as §5, §6

[4] = tested on: SUDHL-6 lymphoid cell line; assay: Cell viability MTS assay, SUDHL-6; assay type: cell-based; settings: Homo sapiens, SU-DHL-6, 48 hours
Experimental: as §5, §6

NCI H929 tumors = assay: NCI H929 human myeloma xenograft model in mice; assay type: in vivo, mouse; settings: bortezomib 1 mg/kg i.p. once every 3 days for 15 days; vehicle 2300 mm^3
Experimental: Cell Culture: Tumor cell line NCI H929 was cultured according to ATCC recommendations in […] containing 10% fetal bovine serum and pen-strep. On the day of implantation, cells were washed 1× with phosphate buffered saline (PBS) and harvested via centrifugation. Cells were pelleted (5 min at 1000 rpm, RT) then resuspended in serum-free matrigel and kept on ice until implantation.
Tumor Cell Implantation: The cell line was implanted via subcutaneous injection on the right rear flank at a volume of 200 μl containing 3×10^7 cells per mouse; the injection site was cleaned using alcohol before and after injection to prevent any infection.
Tumor Assessment: Beginning 1 week post cell implantation all animals were weighed and tagged and tumors were measured and body weights taken 3 times weekly (length×width×height) on Monday, Wednesday, and Friday for the duration of study. Once an average tumor volume of 100-200 mm^3 was reached, animals were randomized and placed into 4 treatment groups of a minimum of 10 mice per group based on tumor size. Randomization was determined by tumor volume (length×width×height)[…] for all of the mice and average volume was calculated using a average function in Excel (Microsoft Professional).
Treatment: The study involved 4 groups of 10 animals per group. Animals in all dose groups were weighed on days of tumor measurement. All doses were administered i.p. at 10 mL/kg. The Bortezormib (1 mg/kg) group was once every 3 days for 15 days. The mice receiving vehicle and compound II-19 were dosed every second day. Compound II-19 was formulated in 1% DMSO, 10 mM Tris pH 8, 30% hydroxypropyl-beta-cyclodextrin; this vehicle was used as the “vehicle” control. Bortezomib was formulated in 30% propylene glycol, 5% Tween 80, 3.3% dextrose in water, pH 4, 1% DMSO.

[5] = fluorescence polarization, Bim-BH3-FITC peptide, GST-Mcl-1, read-out: IC50, inhibition of Bim-BH3 peptide binding to Mcl-1
[6] = fluorescent polarisation assay of Examples 2 and 3, read-out: IC50, inhibition of MCL1

SMILES: COc1cc(-c2ccc(Nc3ccccc3C(=O)O)c(OC)c2)ccc1Nc1ccccc1C(=O)O [Compound A, redoxal]
- IC50 (Mcl-1; [5]): < 500 nM and 480 nM
- IC50 (Bcl-xL): > 16000 nM
- microsome stability (Microsome stability): excellent
- survival outcome vs vehicle control (CCRF-CEM cells): statistically significant; also recorded: significantly improved
- white blood cells vs vehicle control (CCRF-CEM cells; after 14 days of treatment (Day 21), P<0.02 Students' t test): significantly reduced
- mice still alive on Day 31 (CCRF-CEM cells; all vehicle mice died by Day 31): 60%
- plasma clearance ([1]; 10 mg/kg): 1.3 mL/min/kg
- plasma clearance ([1]; 19 mg/kg as printed): 1.3 mL/min/kg
- half-life ([1]; 10 mg/kg): 2.1 h
- half-life ([1]; 19 mg/kg as printed): 2.1 h
- tolerability of the high dose [2]: well-tolerated
- EC50 ([3]; read-out: EC50, cell killing in NCI-H929): 1000 nM

SMILES: COC(=O)c1ccc(O)c2nc3c(CO)c(O)c(-c4c(O)c(CO)c5nc6c(O)ccc(C(=O)OC)c6nc5c4O)c(O)c3nc12 [II-20, dimethyl 1,1′,3,3′,6,6′-hexahydroxy-4,4′-bis(hydroxymethyl)-[2,2′-biphenazine]-9,9′-dicarboxylate]
- EC50 (SUDHL-10 cell line; read-out: EC50, cell killing in SUDHL-10): > 25000 nM
- IC50 (Mcl-1; [5]): 27 nM
- preference for inhibition of Mcl-1 vs. Bcl-xL (Mcl-1; ratio of FP IC50 values): ~5 fold
- IC50 (Bcl-xL): 122 nM
- EC50 ([4]; read-out: EC50, cell killing in SUDHL-6): 9700 nM

SMILES: COc1cc(-c2ccc(Nc3cccc(C(=O)O)c3)c(OC)c2)ccc1Nc1cccc(C(=O)O)c1 [Ic-1, 3,3′-((3,3′-dimethoxy-[1,1′-bipenyl]-4,4′-diyl)bis(azanediyl))dibenzoic acid]
- IC50 (Mcl-1; [6]): < 50000 nM

SMILES: O=C(O)c1ccccc1Nc1ccc(-c2ccc(Nc3ccccc3C(=O)O)c(O)c2)cc1O [Ic-6, 2,2′-((3,3′-dihydroxy-[1,1′-biphenyl]-4,4′-diyl)bis(azanediyl))dibenzoic acid]
- IC50 (Mcl-1; [6]): < 50000 nM

SMILES: COc1cc(-c2ccc(Nc3ccc(C)cc3C(=O)O)c(OC)c2)ccc1Nc1ccccc1C(=O)O [Ic-7, 2-((4′-((2-carboxyphenyl)amino)-3,3′-dimethoxy-[1,1′-biphenyl]-4-Yl)amino)-5-methylbenzoic acid]
- IC50 (Mcl-1; [6]): < 50000 nM

SMILES: COc1cc(-c2ccc(Nc3cnccc3C(=O)O)c(OC)c2)ccc1Nc1ccccc1C(=O)O [Ic-8]
- IC50 (Mcl-1; [6]): < 50000 nM

SMILES: COc1cc(-c2ccc(Nc3ccc(C)cc3C(=O)O)c(OC)c2)ccc1Nc1ccc(C)cc1C(=O)O [Ic-17, 6,6′-((3,3′-dimethoxy-[1,1′-biphenyl]-4,4′-diyl)bis(azanediyl))bis(3-methylbenzoic acid)]
- IC50 (Mcl-1; [6]): < 50000 nM

SMILES: COc1ccc(C(=O)O)c(Nc2ccc(-c3ccc(Nc4cc(OC)ccc4C(=O)O)c(OC)c3)cc2OC)c1 [Ic-18, 2,2′-((3,3′-dimethoxy-[1,1′-biphenyl]-4,4′-diyl)bis(azanediyl))bis(4-methoxybenzoic acid)]
- IC50 (Mcl-1; [6]): < 50000 nM

SMILES: CC(C)C[C@H](NC(=O)[C@H](Cc1ccccc1)NC(=O)c1cnccn1)B(O)O [bortezomib, reference compound]
- average tumor volume at the end of the study (NCI H929 tumors): 1180 mm^3

SMILES: COC1=CC(c2cc3ccccc3[nH]2)=N/C1=C\c1[nH]c(C)cc1C [obatoclax, reference compound]
- EC50 (SUDHL-10 cell line; read-out: EC50 in SUDHL-10 (obatoclax)): 800 nM
- EC50 ([4]; read-out: EC50 in SUDHL-6 (obatoclax)): 2500 nM
- EC50 ([3]; read-out: EC50 in NCI-H929 (obatoclax)): 1800 nM
